Usually melting point stands for the temperature, or range, at which the solid turns liquid. Take `NCC(=O)C[PH](=O)O`: the melting point fell in the range of 126 to 127 °C.

The record behind these values is US7807658B2, “Use of GabaB receptor agonists” (AstraZeneca AB, priority 1999, dated 2010).
